Source: patent US11298334B2, “Use of isothiocyanate compounds” (JC (WUXI) COMPANY, INC., priority 2016, dated 2022)

Columns and labels:
[1] = test system: volunteers with only hyperbilirubinemia; assay: Auxiliary detection on total bilirubin, 6 weeks; assay type: in vivo, human; details: 10, 20 or 30 mg 3 times a day oral
Procedure: The method was the same as described in Example 3, except that 8 volunteers with only hyperbilirubinemia were recruited in the medical research peers. Using the same manner as described in Example 3, the subjects were randomly assigned into any one of the following four groups at a ratio of 1:1:1:1: administration group (Group A): phenylethyl isothiocyanate 10 mg/time, 3 times a day; administration group (Group D): phenylethyl isothiocyanate 20 mg/time, 3 times a day; administration group (Group B): phenylethyl isothiocyanate 30 mg/time, 3 times a day; placebo group (C group): phenylethyl isothiocyanate placebo 1 capsule/time, 3 times a day. Oral administration was continued for 6 weeks.

SD rats = assay: Hypolipidemic activity in rats: serum triglyceride after 6 months oral gavage; assay type: in vivo, rat; details: for TG (serum triglyceride level): at terminal of administration, x ± SD, n = 14
Procedure: Reagent: phenylethyl isothiocyanate, synthesized by Wuxi Jiexi Pharmaceutical Technology Co., Ltd. The chemical construction was determined by NMR, UV, IR, MS, etc., and its content and purity were determined by HPLC (>99%); Fulinmen Brand corn oil, manufactured by Dongliang Industry (Zhangjiagang) Co., Ltd.
Animals: Clean SD rats, half male and half female, weighed 80-100 g, were provided by Shanghai Slac Laboratory Animal Co., Ltd. Free access to drinking water, ambient temperature of 20-25° C., relative humidity of 40%-70%.
Experimental methods: Male rats with 123-149 g of body weight were randomly divided into 4 groups according to their body weights. Female rats with 116-142 g of body weight were randomly divided into 4 groups according to body weights. In the control group and high dose group, there were 60 in each group. In the medium-dose and low-dose groups, there were 40 in each group, half male and half female. 0, 20, 60, 120 mg/kg of phenethyl isothiocyanate was administered by oral gavage, wherein the test drug was diluted with corn oil. The rats were administered continuously for 6 months, and administered 6 days a week, and administered at the same time every morning.
Observation items: blood biochemical examination.

[2] = test system: volunteers with only hyperlipidemia; assay: Auxiliary detection on blood lipids, 6 weeks; assay type: in vivo, human; details: 10, 20 or 30 mg 3 times a day oral
Procedure: Using the same method as described in Example 3 except that 8 volunteers with only hyperlipidemia were recruited and using the same method as described in Example 3. The volunteers were randomly assigned into the following four groups at a ratio of 1:1:1:1: administration group (Group A): phenylethyl isothiocyanate 10 mg/time, 3 times a day; administration group (Group D): phenylethyl isothiocyanate 20 mg/time, 3 times a day; administration group (Group B): phenylethyl isothiocyanate 30 mg/time, 3 times a day; placebo group (Group C): phenylethyl isothiocyanate placebo 1 capsule/time, 3 times a day. Oral administration was continued for 6 weeks.

[3] = test system: patients with benign prostatic hyperplasia; assay: Multicenter randomized double-blind placebo-controlled trial, 24 weeks: serum triglyceride, lipoprotein cholesterol, total bilirubin; assay type: in vivo, human; details: for serum high-density lipoprotein, average change value compared with baseline / serum high-density lipoprotein, percentage of average change compared with baseline: Centers No. 11, 13 and 14
Procedure: A multicenter, randomized, double-blind, placebo parallel control design was used to preliminarily evaluate the safety and efficacy of phenylethyl isothiocyanate capsules on the treatment of BPH patients. Subjects meeting the entry criteria were randomly assigned to any of the following four groups at a ratio of 1:1:1:1: administration group (Group A): phenylethyl isothiocyanate 10 mg/time, 3 times a day; administration group (group D): phenylethyl isothiocyanate 20 mg/time, 3 times a day; administration group (group B): phenylethyl isothiocyanate 30 mg/time, 3 times a day; placebo group (group C): phenylethyl isothiocyanate placebo 1 capsule/time, 3 times a day. Oral administration was continued for 24 weeks. Men between the ages of 50 and 75, healthy, with moderate benign prostatic hyperplasia, no signs of prostate cancer. A total of 240 men participated in the six-month trial. Effectiveness: 1. benign prostatic hyperplasia: IPSS, QOL, prostate volume, the maximal urinary flow rate, residual urine; 2. triglycerides; 3. lipoprotein cholesterol; 4. total bilirubin. Safety: occurrence, process, and solution of all adverse events during treatment. Among the 14 centers in the clinical trial, the serum triglyceride levels and high-density lipoprotein and low-density lipoprotein levels in serum of the subjects were all detected in the center No. 11, center No. 13, and center No. 14.

[4] = test system: volunteers with benign prostatic hyperplasia accompanied by elevated bilirubin; assay: Auxiliary detection on total bilirubin and blood lipid, 24 weeks; assay type: in vivo, human; details: 10, 20 or 30 mg 3 times a day oral
Procedure: Using the same method as described in Example 2, 24 volunteers with benign prostatic hyperplasia accompanied by elevated bilirubin were recruited. Using the same manner as described in Example 2, subjects meeting the entry criteria were randomly assigned into any of the following four groups at a ratio of 1:1:1:1: administration group (Group A): phenylethyl isothiocyanate 10 mg/time, 3 times a day; administration group (Group D): Phenylethyl isothiocyanate 20 mg/time, 3 times a day; administration group (Group B): phenylethyl isothiocyanate 30 mg/time, 3 times a day; placebo group (C group): phenylethyl isothiocyanate placebo 1 capsule/time, 3 times a day. Oral administration was continued for 24 weeks. The effectiveness and safety of the experiment were evaluated. Effectiveness: 1. benign prostatic hyperplasia: IPSS, QOL, prostate volume, maximal urinary flow rate, residual urine; 2. triglycerides; 3. lipoprotein cholesterol; 4. total bilirubin. Safety: occurrence, process, and solution of all adverse events during treatment.

S=C=NCCc1ccccc1 [phenylethyl isothiocyanate]
total bilirubin level, decrease [1]: 10-25% | decrease of triglycerides in serum compared with the 0 mg/kg group (SD rats; female rats, 20 mg/kg): 25.5% | TG (serum triglyceride level) (SD rats; female rats, 20 mg/kg oral gavage): 2.13 ± 0.82 mmol/L | decrease of triglycerides in serum compared with the 0 mg/kg group (SD rats; female rats, 60 mg/kg): 41.2% | TG (serum triglyceride level) (SD rats; female rats, 60 mg/kg oral gavage): 1.68 ± 0.63 mmol/L | decrease of triglycerides in serum compared with the 0 mg/kg group (SD rats; female rats, 120 mg/kg): 52.8% | TG (serum triglyceride level) (SD rats; female rats, 120 mg/kg oral gavage): 1.35 ± 0.72 mmol/L | decrease of triglycerides in serum compared with the 0 mg/kg group (SD rats; male rats, 20 mg/kg): 24.1% | TG (serum triglyceride level) (SD rats; male rats, 20 mg/kg oral gavage): 1.73 ± 0.79 mmol/L | decrease of triglycerides in serum compared with the 0 mg/kg group (SD rats; male rats, 60 mg/kg): 44.3% | TG (serum triglyceride level) (SD rats; male rats, 60 mg/kg oral gavage): 1.27 ± 0.38 mmol/L | decrease of triglycerides in serum compared with the 0 mg/kg group (SD rats; male rats, 120 mg/kg): 56.1% | TG (serum triglyceride level) (SD rats; male rats, 120 mg/kg oral gavage): 1.00 ± 0.22 mmol/L | high-density lipoprotein level, increase [2]: 10-20% | low density lipoprotein level, decrease [2]: 10-25% | triglyceride level, decrease [2]: 10-25% | triglyceride, percentage of average change compared with baseline ([3]; Group A, 30 mg (10 mg 3 times a day) oral, 24 weeks): −6.54% | total bilirubin, percentage of average change compared with the baseline ([3]; Group A, 30 mg, 4 weeks): 2.23% | total bilirubin, percentage of average change compared with the baseline ([3]; Group A, 30 mg, 8 weeks): −3.15% | total bilirubin, percentage of average change compared with the baseline ([3]; Group A, 30 mg, 16 weeks): −4.46% | low-density lipoprotein, average change value compared with baseline ([3]; Group A, 30 mg, 24 weeks): 0.0062 | low-density lipoprotein, percentage of average change compared with baseline ([3]; Group A, 30 mg, 24 weeks): −0.88% | total bilirubin levels, average decrease compared with the baseline ([3]; Group A, 30 mg, 24 weeks): 8.91% | total bilirubin, percentage of average change compared with the baseline ([3]; Group A, 30 mg, 24 weeks): −8.91% | triglyceride levels, average decrease compared with baseline ([3]; Group A, 30 mg, 24 weeks): 6.54% | serum high-density lipoprotein, average change value compared with baseline ([3]; Group A, 30 mg, 24 weeks): 0.0063 | serum high-density lipoprotein, percentage of average change compared with baseline ([3]; Group A, 30 mg, 24 weeks): 1.45% | triglyceride, percentage of average change compared with baseline ([3]; Group B, 90 mg (30 mg 3 times a day) oral, 24 weeks): −8.59% | total bilirubin, percentage of average change compared with the baseline ([3]; Group B, 90 mg, 4 weeks): 2.18% | total bilirubin, percentage of average change compared with the baseline ([3]; Group B, 90 mg, 8 weeks): −0.45% | total bilirubin, percentage of average change compared with the baseline ([3]; Group B, 90 mg, 16 weeks): −8.28% | low-density lipoprotein, average change value compared with baseline ([3]; Group B, 90 mg, 24 weeks): 0.1925 | low-density lipoprotein, percentage of average change compared with baseline ([3]; Group B, 90 mg, 24 weeks): 6.92% | total bilirubin levels, average decrease compared with the baseline ([3]; Group B, 90 mg, 24 weeks): 6.10% | total bilirubin, percentage of average change compared with the baseline ([3]; Group B, 90 mg, 24 weeks): −6.10% | triglyceride levels, average decrease compared with baseline ([3]; Group B, 90 mg, 24 weeks): 8.59% | serum high-density lipoprotein, average change value compared with baseline ([3]; Group B, 90 mg, 24 weeks): 0.0938 | serum high-density lipoprotein, percentage of average change compared with baseline ([3]; Group B, 90 mg, 24 weeks): 7.77% | triglyceride, percentage of average change compared with baseline ([3]; Group D, 60 mg (20 mg 3 times a day) oral, 24 weeks): −8.58% | total bilirubin, percentage of average change compared with the baseline ([3]; Group D, 60 mg, 4 weeks): 5.21% | total bilirubin, percentage of average change compared with the baseline ([3]; Group D, 60 mg, 8 weeks): 3.34% | total bilirubin, percentage of average change compared with the baseline ([3]; Group D, 60 mg, 16 weeks): −1.82% | low-density lipoprotein, average change value compared with baseline ([3]; Group D, 60 mg, 24 weeks): −0.0425 | low-density lipoprotein, percentage of average change compared with baseline ([3]; Group D, 60 mg, 24 weeks): 0.05% | total bilirubin levels, average decrease compared with the baseline ([3]; Group D, 60 mg, 24 weeks): 8.55% | total bilirubin, percentage of average change compared with the baseline ([3]; Group D, 60 mg, 24 weeks): −8.55% | triglyceride levels, average decrease compared with baseline ([3]; Group D, 60 mg, 24 weeks): 8.58% | serum high-density lipoprotein, average change value compared with baseline ([3]; Group D, 60 mg, 24 weeks): 0.1013 | serum high-density lipoprotein, percentage of average change compared with baseline ([3]; Group D, 60 mg, 24 weeks): 9.15% | high-density lipoprotein level, increase [4]: 10-20% | low density lipoprotein level, decrease [4]: 15-25% | total bilirubin level, decrease [4]: 15-25% | triglyceride level, decrease [4]: 15-25%
